The results in this text go back to the METLIN SMRT retention time set (Domingo-Almenara et al. 2019).

The series in a line: gradient 5% acetonitrile 3 min, to 50% in 2 min, to 85% in 15 min, held 3 min, 100 µL/min. The note with it: column: Zorbax Extend-C18 2.1 x 50 mm; eluents: water / acetonitrile, 0.1% formic acid. Summed up:
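Over 3 months, pure standards in mixtures of ~100 molecules were run by HPLC coupled to a quadrupole time-of-flight mass spectrometer in positive and negative ionization mode. The column was a Zorbax Extend-C18 (2.1 × 50 mm, 1.8 μm) at 100 μL/min, eluted with water and acetonitrile each holding 0.1% formic acid, with 40 μL dead and 900 μL dwell volumes. Retention time was determined from adduct peaks chosen by software and checked manually.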
Compound `CCOC(=O)c1cc(S(=O)(=O)N2CCCC2C(=O)Nc2ccc3c(c2)OCO3)cn1C` (stereo not drawn) displayed an RP-LC retention time of 876 s.
With `COc1ccc(NC(=O)C2CCN(S(=O)(=O)c3ccc4c(c3)sc(=O)n4C)CC2)cc1Cl` the figure was 880 s.
In the case of `CCc1cc(=O)n(CC(=O)Nc2ccccc2Cl)c(N2CCOCC2)n1` it was 830 s; in that of `O=C1Nc2ccccc2OC1C(=O)N1CCC(Cc2ccccc2)CC1` (stereo not drawn), 920 s; in that of `CC(C)n1c(=O)sc2cc(S(=O)(=O)N3CCC(C(=O)Nc4ccc(Cl)cc4)CC3)ccc21`, 1050 s.
In the case of `COc1ccc(OC)c(NC(=O)N2CCC3(CC2)N=C(c2ccc(Cl)cc2)C(=O)N3)c1` it was 922 s; in that of `Cc1ccc(Nc2c(-c3ccc(O)cc3)nc3cc(C)ccn23)cc1`, 696 s.
`O=C(Nc1ccc2c(c1)OCCO2)C1CCCN(c2nnc3c(Cl)cccn23)C1` (stereo not drawn) showed an RP-LC retention time of 709 s.
In the case of `Cc1ccnc(N2CCCC(C(=O)NCC3CCN(Cc4ccccc4F)CC3)C2)n1` (stereo not drawn) it was 608 s; in that of `COc1ccc(NC(=O)C2CC(=O)N(c3n[nH]c4ccccc34)C2)cn1` (stereo not drawn), 646 s; in that of `CC(=O)N1c2ccc(S(=O)(=O)N3CCCC3)cc2CC1C(=O)NCCC(C)C` (stereo not drawn), 806 s.
With `Cc1cc2c(cc1S(=O)(=O)N1CCCC1C(=O)Nc1ccc(F)c(Cl)c1)OCC(=O)N2` (stereo not drawn) the figure was 965 s.
In the case of `COc1cc(-c2ccnc3nc(Cc4ccc(F)cc4)nn23)cc(OC)c1OC` it was 695 s; in that of `Cc1cnc(CCNC(=O)Nc2ccc3c(c2)OCCO3)n1C1CCC1`, 517 s.
Turning to `CCc1ccc2[nH]c3c(c(=O)c2c1)CN(CC(=O)NCc1ccc(SC)cc1)CC3`, the RP-LC retention time was determined as 889 s.
With `CCN1C(=O)c2cc(S(=O)(=O)Nc3ccc(F)cc3)ccc2Oc2cccnc21` the figure was 957 s.
With `O=C(Cc1ccccc1)NC1CCN(c2cc(-c3cccs3)[nH]n2)C1` (stereo not drawn) the figure was 741 s; with `O=C(Nc1ccccc1)N1CCN(c2nc(-c3ccccc3)ns2)CC1`, 1020 s; with `CN1C(=O)COc2ccc(-c3csc(NC(=O)c4ccco4)n3)cc21`, 806 s.
In the case of `O=C(NCc1ccccn1)c1cccc2c1CCN2C(=O)c1ccc(F)cc1` it was 644 s; in that of `O=C(c1ccc(Cl)cc1)N1CCN(S(=O)(=O)c2cc3c4c(c2)CCC(=O)N4CCC3)CC1`, 838 s.
Consider `CN1CCN(CCNC(=O)CN2C(=O)C3CCCCN3c3ccc(C(=O)N(C)C)cc32)CC1` (stereo not drawn), for which the RP-LC retention time is 578 s.
`O=C(CN1CC=C(c2cnn(-c3ccc(F)cc3)c2)CC1)N1CCCCC1` gave an RP-LC retention time of 661 s.
In the case of `Cc1c(Cl)cccc1NS(=O)(=O)c1cc2c(s1)CCN(C(=O)C1CCC1)C2` it was 916 s; in that of `Cc1nc(S(=O)(=O)N2CCC(C(=O)N3CCN(c4ccc(Cl)cc4)CC3)CC2)cn1C`, 859 s; in that of `CC(=O)c1ccc(NC(=O)C2CC(=O)N(c3ccc4c(c3)CCN4C(C)=O)C2)cc1` (stereo not drawn), 670 s.
With `Cc1noc(-c2nn(C)c3c2CN(C(=O)COc2ccc(F)cc2)CC3)n1` the figure was 740 s.
`COC(=O)c1ccc(CN2CCN(c3cnn4cnnc4c3)CC2)cc1` had an RP-LC retention time of 548 s.
With `CSc1ccc(C2c3[nH]c4ccccc4c3CCN2C(=O)c2ccco2)cc1` (stereo not drawn) the figure was 1140 s; with `O=C(CCc1c(-c2ccccc2)nc2ccccn12)NC1CCCCCC1`, 666 s.
In the case of `COc1cccc2cc(C(=O)NCC3CCN(C(=O)c4snnc4C)CC3)oc12` it was 697 s; in that of `CCc1noc(-c2cc(=O)n(CC(=O)NCc3ccc(SC)cc3)c3ccccc23)n1`, 928 s.
`Cc1ccc(NC(=O)C2CCN(C(=O)C3Sc4ccccc4NC3=O)CC2)c(C)c1` (stereo not drawn): the RP-LC retention time was 762 s.
In turn, `Cc1ccc(CNC(=O)C2CCN(S(=O)(=O)c3cc(C(=O)N4CCCCCC4)cs3)CC2)o1` had an RP-LC retention time of 862 s.
The compound `OC[C@@H]1CN(C2CCCC2)C[C@H]1c1nc(-c2cccnc2)no1` gave an RP-LC retention time of 553 s.
In the case of `O=C(CCn1c(=O)oc2ccccc21)NCc1ccc2c(c1)OCO2` it was 941 s; in that of `Cc1cc(N2CCN(C(=O)c3cccc(C(F)(F)F)c3)CC2)nc2nncn12`, 627 s; in that of `O=C(NCc1ccccc1C(F)(F)F)c1cn2ccccc2n1`, 757 s.
`CCN1CCn2cc(S(=O)(=O)Nc3ccccc3OC)cc2C1=O` showed an RP-LC retention time of 690 s.
With `Cc1ccc(NC(=O)C2CCN(S(C)(=O)=O)c3cc(C)ccc3O2)c(C)c1` (stereo not drawn) the figure was 945 s; with `Cc1ccc(CNC(=O)C2(C)Cn3nc(C(=O)NCc4cccc(C)c4)cc3C(=O)N2C)cc1` (stereo not drawn), 824 s; with `COc1ccc(-c2noc(C3CCCN3C(=O)COc3ccc(Cl)cc3)n2)cc1` (stereo not drawn), 1030 s.
With `CCn1c(=O)c(N2CCCC(C(=O)N3CCN(c4cccc(OC)c4)CC3)C2)nc2ccccc21` (stereo not drawn) the figure was 1100 s.
In the case of `CCN1C(=O)COc2ccc(-c3csc(NC(=O)C(C)(C)C)n3)cc21` it was 910 s; in that of `Cn1nccc1-c1cccc(-c2noc(-c3ccccc3Cl)n2)c1`, 1170 s.
Regarding `CN1C(=O)c2cc(C(=O)NCc3ccc(F)cc3)nn2CC1(C)C(=O)NC1CCCCCC1` (stereo not drawn), the RP-LC retention time was found to be 840 s.
On to `Cc1ccccc1Nc1c(-c2ccccc2O)nc2ccc(Br)cn12`, for which the RP-LC retention time was found to be 1050 s.
With `Cc1cccc(C(=O)N2CCCC2c2cc(C(C)C)on2)c1` (stereo not drawn) the figure was 948 s; with `CCOC(=O)C1=C(CN(CC)CC)N(C)C(=O)NC1c1ccccc1` (stereo not drawn), 618 s; with `Cc1oc(-c2[nH]ncc2C(=O)N2CCCC2)cc1S(=O)(=O)Nc1ccccc1`, 685 s.
In the case of `COCCCNC(=O)C1c2ccccc2C(=O)N(C)C1c1ccc(OC)c(OC)c1` (stereo not drawn) it was 666 s; in that of `COCCN1C(=O)c2ccccc2C(C(=O)NCCCN2CCCC(C)C2)C1c1cccs1` (stereo not drawn), 643 s.
In the case of `Cc1ccc(S(=O)(=O)N(C)C)cc1-c1nnc(-c2ccccc2)o1` it was 971 s.
`Cc1sc2ccn(C)c(=O)c2c1C(=O)N1CCN(c2ccccc2)CC1` showed an RP-LC retention time of 728 s.
`CCC(O)c1nc2ccccc2n1CC(=O)N1CCOCC1` (stereo not drawn) came in with an RP-LC retention time of 566 s.
Turning to `COc1ccc(CCNC(=O)C2CCN(S(C)(=O)=O)c3ccccc3O2)cc1` (stereo not drawn), the RP-LC retention time was 828 s.
With `COc1ccc(Cl)cc1Nc1c(-c2nc(C)no2)cnc2nc(C)ccc12` the figure was 794 s.
With `CCCNC(=O)C1CCCN(c2nc3ncn(CC(=O)NCCC4=CCCCC4)c(=O)c3s2)C1` (stereo not drawn) the figure was 732 s.
In the case of `Cc1[nH]c(C(=O)N2CCCC(C(=O)NCc3ccc(N(C)C)cc3)C2)c(C)c1C(=O)OC(C)C` (stereo not drawn) it was 681 s; in that of `O=C(CN1CCC(c2nc(-c3cccs3)no2)CC1)NCc1ccc2c(c1)OCO2`, 672 s; in that of `CCC(CC)C(=O)Nc1nc(-c2ccc3c(c2)N(C)C(=O)CO3)c(C)s1`, 962 s.
As to `Cc1ccc(S(=O)(=O)N(C)CC2CCOCC2)cc1Cl`, the RP-LC retention time was 894 s.
In the case of `C=CCNc1c(C(=O)OC)c(=O)[nH]c2c(Cl)cccc12`, the RP-LC retention time was determined as 700 s.
Consider `CCCc1nc(-c2c(C)cc(C)nc2NC(=O)c2cc(C)cc(C)c2)no1`, for which the RP-LC retention time worked out at 784 s.
Regarding `Cc1ccc(NC(=O)C2CCN(S(=O)(=O)c3cn(C)cn3)CC2)c(C)c1`, the RP-LC retention time was found to be 706 s.
In the case of `CCCn1c(=O)sc2cc(S(=O)(=O)N3CCC(C(=O)N4CCCCCC4)CC3)ccc21` it was 937 s.
In the case of `COc1ccc(NC(=O)N2CC(Oc3ccc(-c4nc(-c5ccccc5)no4)cc3)C2)cc1` it was 1090 s; in that of `CCOC(=O)c1c(C)oc2nc(C)nc(NCCN(Cc3ccccc3)C(C)C)c12`, 735 s.
Compound `CCS(=O)(=O)N1CC(=O)N(c2cc(C)ccc2C)C(C)(C(=O)NC2CCCCCC2)C1` (stereo not drawn) returned an RP-LC retention time of 951 s.
With `O=C(Cn1nc2c3ccc(F)cc3ncn2c1=O)Nc1ccc(Cl)cc1` the figure was 760 s; with `Cc1ccc(C)c(CNC(=O)CCc2conc2-c2ccc(F)cc2)c1`, 1010 s.
In turn, `Cc1nnc2c(=O)n(CC(=O)N3CCC(Cc4ccccc4)CC3)c3cccnc3n12` came in with an RP-LC retention time of 814 s.
For `COC(=O)c1ccc(NC(=O)Cn2c(-c3cccnc3)nc3ccccc32)cc1`, the RP-LC retention time turned out to be 708 s.
In the case of `COc1ccc(N2C(=O)C3(CCCCC3)C2C(=O)N(C)C)cc1` (stereo not drawn) it was 750 s; in that of `Cc1ccc(S(=O)(=O)c2cnc(N3CCC4(CC3)OCCO4)nc2N)cc1C`, 900 s; in that of `CN1CCCN(C(=O)COc2ccc(Cl)cc2)c2ccccc21`, 960 s.
Compound `Cc1c(-c2nnc(C3CCC3)o2)c(S(=O)(=O)Nc2cccc(Cl)c2F)c(C)n1C` returned an RP-LC retention time of 1060 s.
`COC(=O)c1cnc2nc(C)ccc2c1NCc1cccc(Cl)c1` displayed an RP-LC retention time of 733 s.
